Test systems include M19-MEL; XF498; KM-20L2; HOP-18; SNB-78; DLD-1; LXFL 529; DMS-273; RXF 631.
Common to all, as to experiment: inhibition of tumour cell growth, NCI panel, 48 h

The structures appear in SMILES notation.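 Exposure lasted 48 hours, with cells grown in 96-well plates and compounds tested at five concentrations. GI50: concentration for 50% inhibition of growth.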 Activity calls are given as the source filed them. No stated cut-off is given here; in the data, active = GI50 up to about 1.1 µM and inactive = higher. A value given as a limit tells only on which side of the number the result lay.

For `O=C(c1ccc(Cl)cc1)c1ccc(OCC(=O)N2CCN(c3ccccc3)CC2)cc1`, the GI50 was > 100 µM (inactive) in the test with M19-MEL; > 100 µM (inactive) with XF498; > 100 µM (inactive) in the test on KM-20L2; > 100 µM (inactive) in the test on HOP-18; 56.4 µM (inactive) with SNB-78; > 100 µM (inactive) in the test on DLD-1. In the test on LXFL 529, the GI50 is 52.7 µM (inactive).

As for `COc1ccc(C(=O)C(c2ccc(OC)cc2)C2(O)C(=O)Nc3c(Cl)cc(Cl)cc32)cc1` (stereo unspecified), the GI50 in the test with XF498 was 22.4 µM (inactive); in the test with KM-20L2, 21.1 µM (inactive); with HOP-18 it was 20.1 µM (inactive); in the test on SNB-78, 18.3 µM (inactive); with DMS-273, 16.3 µM (inactive); with DLD-1, 19.2 µM (inactive). In addition, the GI50 in the test with LXFL 529 was 15 µM (inactive).

In the case of `CCCCCCCC(=O)NCC(O)CNC(=O)CCCCCCC`, the GI50 in the test on M19-MEL, in the test on XF498, with KM-20L2, with HOP-18, with SNB-78 and in the test with DMS-273 was > 100 µM (inactive) each time. Moreover, the GI50 in the test with DLD-1 and with LXFL 529 was > 100 µM (inactive) each time.

For the compound `CCOC(=O)NC(=O)c1cn(CCN2CCN(C(=O)NCCCCCCNC(=O)N3CCN(CCn4cc(C(=O)NC(=O)OCC)c(=O)[nH]c4=O)CC3)CC2)c(=O)[nH]c1=O`, the GI50 with M19-MEL, in the test on RXF 631, in the test with XF498, in the test on KM-20L2, with HOP-18 and with SNB-78 was > 100 µM (inactive) in each case. Moreover, the GI50 with DMS-273 and in the test with LXFL 529 was > 100 µM (inactive) throughout.

For the compound `Cc1nc2c(n1CC(C)C)C(=O)c1ccccc1C2=O`, the GI50 is 15.7 µM (inactive) in the test with M19-MEL; 33.3 µM (inactive) in the test with XF498; 35.6 µM (inactive) in the test with KM-20L2; 61.9 µM (inactive) with SNB-78; 26.8 µM (inactive) in the test on DMS-273; 36.6 µM (inactive) in the test with DLD-1. Also, the GI50 with LXFL 529 is 42.6 µM (inactive).

As for `O=C1C=C(c2c(O)ccc3ccccc23)c2cc(O)ccc2C1=O`, the GI50 is 3.33 µM (inactive) in the test with M19-MEL; 11.1 µM (inactive) in the test on XF498; 20 µM (inactive) in the test with KM-20L2; 26.1 µM (inactive) in the test with HOP-18; 19.2 µM (inactive) with SNB-78; 15.3 µM (inactive) in the test on DMS-273. The results for the GI50 in the test with DLD-1 and in the test on LXFL 529 were 16.9 µM (inactive) and 6.4 µM (inactive), respectively.

On to `CC(Oc1cc2oc(=O)cc(-c3ccccc3)c2cc1Cl)C(=O)O` (stereo unspecified), for which the GI50 in the test on M19-MEL is > 100 µM (inactive); with RXF 631, > 100 µM (inactive); with XF498, 33.5 µM (inactive); with KM-20L2 it was > 100 µM (inactive); in the test with HOP-18, > 100 µM (inactive); in the test on SNB-78 it was > 100 µM (inactive). The GI50 in the test with DLD-1 and in the test with LXFL 529 was > 100 µM (inactive) each time.

In the case of `COc1ccc(NS(=O)(=O)c2ccc(/N=C3\C=C(Nc4ccc(S(=O)(=O)Nc5ccc(OC)nn5)cc4)C(=O)c4ccccc43)cc2)nn1`, the GI50 in the test on M19-MEL was 16.9 µM (inactive); in the test with XF498 it was 22.6 µM (inactive); in the test on KM-20L2, 17.9 µM (inactive); with HOP-18, 16 µM (inactive); with SNB-78, 57 µM (inactive); in the test on DMS-273, 14.9 µM (inactive). The GI50 was 18.5 µM (inactive) in the test on DLD-1 and 22.2 µM (inactive) in the test on LXFL 529.

In the case of `CCN(CC)CC(C(=O)Nc1c(C)cccc1C)/C(C)=N/NC(N)=S` (stereo unspecified), the GI50 with M19-MEL, with RXF 631, in the test with XF498, in the test on KM-20L2, with SNB-78 and in the test with DMS-273 was > 100 µM (inactive) each time. In addition, the GI50 in the test on DLD-1 and in the test with LXFL 529 was > 100 µM (inactive) each time.

For the compound `CC[C@](O)(C(=O)O)c1cc2n(c(=O)c1CO)Cc1cc3ccccc3nc1-2`, the GI50 is 0.0336 µM (active) in the test on M19-MEL; 0.084 µM (active) in the test with RXF 631; 0.0968 µM (active) in the test on XF498; 0.0535 µM (active) in the test with KM-20L2; 0.0436 µM (active) with HOP-18; 0.025 µM (active) in the test on DMS-273. Further, the GI50 in the test with LXFL 529 was 0.692 µM (active).

With `O=C(O)CCC(O)=C1S(=O)(=O)OCCOS1(=O)=O`, the GI50 with M19-MEL, with KM-20L2, with HOP-18, in the test with SNB-78, in the test with DMS-273 and with DLD-1 was > 100 µM (inactive) each time. For the same compound, in the test with LXFL 529, the GI50 is > 100 µM (inactive).

Turning to `C/C=C(/I)CBr`, the GI50 with M19-MEL is 14.5 µM (inactive); in the test on RXF 631, 15.3 µM (inactive); in the test on XF498 it was 13.5 µM (inactive); in the test on KM-20L2 it was 29.5 µM (inactive); in the test on SNB-78, 29 µM (inactive); in the test with DLD-1, 15.4 µM (inactive). Also, the GI50 with LXFL 529 is 13.7 µM (inactive).

Turning to `CC(C(=O)n1c2ccccc2c2ccccc21)N(c1ccccc1)c1ccccc1` (stereo unspecified), the GI50 with M19-MEL was 18.5 µM (inactive); with KM-20L2 it was 18.9 µM (inactive); in the test with SNB-78, 15.6 µM (inactive); in the test on DMS-273, 18.7 µM (inactive); in the test on DLD-1, 17.8 µM (inactive); in the test on LXFL 529, 14.4 µM (inactive).

`Nc1nc(N)c(N=O)c(Nc2ccc(Br)cc2)n1`: the GI50 in the test with M19-MEL was 30.5 µM (inactive); in the test on XF498, 18.8 µM (inactive); in the test on KM-20L2, 25.3 µM (inactive); with HOP-18 it was 11.2 µM (inactive); with SNB-78, 41.5 µM (inactive); with DMS-273 it was 17.5 µM (inactive). The GI50 is 10.4 µM (inactive) in the test with DLD-1 and 15.3 µM (inactive) in the test with LXFL 529.

As to `O=C1OC(=O)C2C3CCC(O3)C12` (stereo unspecified), the GI50 in the test on M19-MEL, in the test with XF498, in the test with HOP-18, in the test with SNB-78, in the test with DMS-273 and in the test with DLD-1 was > 100 µM (inactive) in each case. For the same compound, the GI50 in the test with LXFL 529 is > 100 µM (inactive).

Take `O=C1C(CO)=C(CO)C(=O)c2c(O)ccc(O)c21`: the GI50 in the test with M19-MEL was 0.0719 µM (active); in the test with RXF 631 it was 1.26 µM (inactive); in the test with XF498, 0.247 µM (active); in the test with KM-20L2, 0.498 µM (active); in the test on SNB-78 it was 1.7 µM (inactive); in the test with DMS-273, 0.369 µM (active). Besides, the GI50 with DLD-1 is 0.0653 µM (active); in the test on LXFL 529, 0.177 µM (active).

As to `CC1=NN=C(NCCN(C)C)C/C1=C/c1ccccc1Cl`, the GI50 with M19-MEL is > 100 µM (inactive); in the test with RXF 631, 67.5 µM (inactive); in the test with XF498, 77.3 µM (inactive); in the test with KM-20L2 it was 58.3 µM (inactive); with HOP-18, 61.7 µM (inactive); in the test with SNB-78, > 100 µM (inactive). Also, the GI50 with DMS-273, in the test with DLD-1 and in the test on LXFL 529 was > 100 µM (inactive) in each case.

In the case of `C=CCOC(C)n1c(C)cc(=O)n(C(C)OCC=C)c1=O` (stereo unspecified), the GI50 in the test on M19-MEL, with KM-20L2, in the test with HOP-18, with SNB-78, in the test on DMS-273 and in the test on DLD-1 was > 100 µM (inactive) each time. Moreover, the GI50 in the test on LXFL 529 is > 100 µM (inactive).

Take `COc1cc(C(=O)NC2CCc3cc(OC)c(OC)c(OC)c3-c3ccc(OC)c(=O)cc32)cc(OC)c1OC` (stereo unspecified): the GI50 in the test with M19-MEL was 0.0577 µM (active); with XF498, 0.15 µM (active); in the test with KM-20L2, 0.0817 µM (active); with HOP-18 it was > 29.4 µM (inactive); with SNB-78 it was 0.0232 µM (active); in the test with DMS-273 it was 0.0316 µM (active). For the same compound, the GI50 with DLD-1 is 0.265 µM (active); in the test on LXFL 529, 0.0272 µM (active).

Consider `CS/C(=N\C(=S)Nc1ccccc1)Nc1ccccc1`, for which the GI50 is 11 µM (inactive) in the test on M19-MEL, 31 µM (inactive) in the test with KM-20L2, 40.3 µM (inactive) in the test on SNB-78 and > 10 µM (inactive) in the test with DMS-273.

As for `Cc1cc2c(cc1C)[n+]([O-])c(-c1c(Cl)cccc1Cl)c(N)[n+]2[O-]`, the GI50 is 34.9 µM (inactive) in the test on M19-MEL; 18.2 µM (inactive) with RXF 631; 40 µM (inactive) with KM-20L2; 18.9 µM (inactive) in the test with HOP-18; 43.9 µM (inactive) in the test with SNB-78; 32.1 µM (inactive) in the test on DMS-273. For the same compound, the values for the GI50 in the test with DLD-1 and in the test with LXFL 529 were 30.7 µM (inactive) and 31.6 µM (inactive), respectively.

For `CC(=O)OC1=CC(n2cc(F)c(=O)[nH]c2=O)OC(C)C1=O` (stereo unspecified), the GI50 is 90.8 µM (inactive) with M19-MEL; > 100 µM (inactive) in the test with XF498; > 100 µM (inactive) with HOP-18; > 100 µM (inactive) in the test on SNB-78; 41.5 µM (inactive) with DMS-273; 97.3 µM (inactive) with DLD-1. In the test with LXFL 529, the GI50 is > 100 µM (inactive).

Regarding `COC1OC(C)C(OC(=O)C(C)(C)C)C(C)(O)C1O` (stereo unspecified), the GI50 in the test with M19-MEL is > 100 µM (inactive); with XF498, > 100 µM (inactive); in the test on KM-20L2, > 100 µM (inactive); in the test on HOP-18 it was > 100 µM (inactive); with SNB-78, 81.5 µM (inactive); in the test with DMS-273, > 100 µM (inactive). The GI50 with DLD-1 and in the test with LXFL 529 was > 100 µM (inactive) each time.

In the case of `Cc1ccc(C)c(N2C(=O)C(=O)C(c3nc4ccccc4o3)/C(=N/N)C2=O)c1` (stereo unspecified), the GI50 with M19-MEL was > 100 µM (inactive); in the test with XF498 it was 47.6 µM (inactive); in the test with KM-20L2, > 100 µM (inactive); in the test with HOP-18, > 100 µM (inactive); with SNB-78 it was > 100 µM (inactive); in the test on DMS-273 it was > 100 µM (inactive). Besides, the GI50 with DLD-1 and in the test with LXFL 529 was > 100 µM (inactive) in each case.

For `CC1NOC(=O)C1/N=N/c1cccc(Cl)c1` (stereo unspecified), the GI50 in the test with M19-MEL was 30.3 µM (inactive); with XF498 it was 22.3 µM (inactive); with KM-20L2, 35.6 µM (inactive); in the test on HOP-18 it was 26.1 µM (inactive); in the test on SNB-78 it was 36.6 µM (inactive); with DMS-273, 48.1 µM (inactive). The GI50 in the test with DLD-1 is 34.6 µM (inactive); with LXFL 529 it was 27.9 µM (inactive).

Source of the values: ChEMBL document CHEMBL1201862, “PubChem BioAssay data set” (2004).
